From patent US11078228B2, “Ectonucleotidase inhibitors and methods of use thereof” (Calithera Biosciences, Inc., priority 2018, dated 2021)

Assays:
A375 cells = assay: Viability of A375 cells, CellTiter-Glo; type: cell-based, human; conditions: 100 μM, 3 days
Experimental: Viability of EG7 and A375 cells treated with 100 μM Compound 9 was measured using CellTiter-Glo after 3 days. Proliferation of human CD8+ T cells was measured by flow cytometry after 4 days of treatment with 100 μM Compound 9 using CellTrace CFSE Cell Proliferation Kit.

mouse plasma CD73 = mouse plasma CD73 (Mus musculus (Mouse), UniProt Q61503); assay: Oral dosing pharmacodynamics: CD73 inhibition in plasma of dosed mice; type: in vivo; conditions: single oral dose 50 mg/kg, plasma 2 hours post dose
mouse plasma CD73, sequence (Q61503 29-576): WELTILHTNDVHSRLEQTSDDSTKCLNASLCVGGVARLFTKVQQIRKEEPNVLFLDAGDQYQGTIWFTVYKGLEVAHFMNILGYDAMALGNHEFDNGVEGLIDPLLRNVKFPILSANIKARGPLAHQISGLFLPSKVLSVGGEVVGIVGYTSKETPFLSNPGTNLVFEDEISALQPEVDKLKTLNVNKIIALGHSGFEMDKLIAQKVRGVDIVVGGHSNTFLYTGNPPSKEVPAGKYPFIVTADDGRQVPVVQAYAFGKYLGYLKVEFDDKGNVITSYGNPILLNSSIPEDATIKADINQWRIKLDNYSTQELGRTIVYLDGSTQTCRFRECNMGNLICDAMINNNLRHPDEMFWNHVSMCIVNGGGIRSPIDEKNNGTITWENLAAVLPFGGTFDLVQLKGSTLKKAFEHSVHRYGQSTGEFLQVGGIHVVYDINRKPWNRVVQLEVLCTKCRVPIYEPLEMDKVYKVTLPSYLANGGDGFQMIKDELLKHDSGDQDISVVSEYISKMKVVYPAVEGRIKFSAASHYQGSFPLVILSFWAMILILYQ
Experimental: Single dose Compound 9 (50 mg/kg) was administered orally to mice and plasma was collected at indicated time points. Compound 9 levels were measured by LC/MS. Plasma was harvested from mice 2 hours post dose and spiked with ^15N5-AMP and a TNAP inhibitor. ^15N5-ADO levels were measured by LC/MS.

CT26 cells = assay: CT26 subcutaneous tumor model in Balb/c mice, tumor volume; type: in vivo, mouse; conditions: 100 mg/kg orally BID from day one post implant
Experimental: (§1) Compounds of the invention show potent anti-tumor effects, evidenced in reducing tumor volume in a mouse model. In one model, EG7 cells were implanted subcutaneously into C57BL/6 mice. Compound 9 or vehicle was orally administered BID starting day one post implant (N=10 per group). […] In another model, EG7 cells were implanted subcutaneously into C57BL/6 mice. Compound 9 was orally administered BID (100 mg/kg) starting day one post implant (N=10 per group). Vehicle was orally administered BID starting day one post implant (N=20) until day five post implant, at which time, mice were randomized by tumor volume into two groups. Compound 9 (100 mg/kg) or vehicle was orally administered BID to N=10 per group starting day six post implant. […] FIGS. 13B-D show individual replications of this measurement for each dosing. FIG. 13B is vehicle. FIG. 13C is dosing of Compound 9 started on day 1. FIG. 13D is Compound 9 started on day 6. In another model, CT26 cells were implanted subcutaneously into Balb/c mice. 100 mg/kg Compound 9 or vehicle was orally administered BID starting day one post implant (N=10 per group).

recombinant human ENTPD2 = recombinant human ENTPD2 (Homo sapiens (Human), UniProt Q9Y5L3); assay: Recombinant human ENTPD2 malachite green assay; type: biochemical
recombinant human ENTPD2, sequence (Q9Y5L3 whole entry): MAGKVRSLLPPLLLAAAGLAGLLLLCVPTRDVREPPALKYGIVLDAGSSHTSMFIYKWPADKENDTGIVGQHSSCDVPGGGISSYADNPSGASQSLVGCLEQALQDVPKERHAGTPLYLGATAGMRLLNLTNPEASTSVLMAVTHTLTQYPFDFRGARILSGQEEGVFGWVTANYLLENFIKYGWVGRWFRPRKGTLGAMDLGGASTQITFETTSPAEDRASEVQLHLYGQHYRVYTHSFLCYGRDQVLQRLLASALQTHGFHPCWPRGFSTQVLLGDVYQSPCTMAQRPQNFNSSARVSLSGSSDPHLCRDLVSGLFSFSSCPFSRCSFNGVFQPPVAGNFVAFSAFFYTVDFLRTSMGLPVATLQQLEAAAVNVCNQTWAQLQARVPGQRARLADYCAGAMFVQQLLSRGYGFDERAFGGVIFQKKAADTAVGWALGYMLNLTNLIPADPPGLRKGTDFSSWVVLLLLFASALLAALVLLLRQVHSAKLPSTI
Experimental: Using Compound 9, the activity of cell surface CD39 was assessed using K562 cells expressing human CD39 and Kinase-Glo. Activity of recombinant human ENTPD2 and ENTPD3 was assessed using a malachite green assay. […] Compound 9 was screened in the Eurofins Safety Screen Panel and the Eurofins Express Diversity Kinase Profile Panel. In the Safety Panel, 1/87 targets were inhibited at >50% at 10 μM of Compound 9. The PDE3 enzyme was inhibited at 59%.

recombinant CD73 = recombinant CD73 (Homo sapiens (Human), UniProt P21589); assay: Assay 2: Inhibition of the CD73 enzyme in vitro (0.05 nM CD73, 1 hour 37° C., Malachite Green); type: biochemical; conditions: 0.05 nM CD73, 50 μM AMP, 1 hour at 37° C.
recombinant CD73, sequence (P21589 27-547): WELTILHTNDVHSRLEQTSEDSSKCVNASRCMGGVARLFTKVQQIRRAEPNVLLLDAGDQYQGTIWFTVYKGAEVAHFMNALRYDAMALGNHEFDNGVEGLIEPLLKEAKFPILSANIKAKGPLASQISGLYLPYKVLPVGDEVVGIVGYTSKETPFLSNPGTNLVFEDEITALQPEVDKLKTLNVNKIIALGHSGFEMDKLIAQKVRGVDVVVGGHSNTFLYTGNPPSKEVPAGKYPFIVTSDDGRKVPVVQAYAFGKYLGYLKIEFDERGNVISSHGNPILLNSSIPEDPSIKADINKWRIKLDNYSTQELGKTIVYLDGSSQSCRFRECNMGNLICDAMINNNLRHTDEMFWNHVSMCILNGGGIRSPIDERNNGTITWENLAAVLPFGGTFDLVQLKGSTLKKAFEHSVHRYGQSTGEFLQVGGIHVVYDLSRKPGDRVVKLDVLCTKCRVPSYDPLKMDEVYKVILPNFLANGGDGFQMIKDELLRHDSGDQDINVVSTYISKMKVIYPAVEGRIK
Method in brief: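 Free phosphate was quantified from absorbance at 630 nm against a phosphate standard curve. This was read 5 min after Malachite Green was added at room temperature. Beforehand, the recombinant soluble enzyme reacted for 1 hour at 37° C.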

EG7 cells = assay: EG7 subcutaneous tumor model in C57BL/6 mice, tumor volume; type: in vivo, mouse
Experimental: (§2) EG7 cells were implanted subcutaneously into C57BL/6 mice. Compound 9 (50 mg/kg) or vehicle was orally administered BID starting day one post implant (N=10 per group). Tumors were excised on day 14 and analyzed by flow cytometry. Compound 9 increased the % CD8+ cells of CD45+ cells as shown in FIG. 1A (* indicates p<0.05). EG7 cells were implanted subcutaneously into C57BL/6 mice. Anti-CD8 antibody was dosed i.p. on days −1, 0, 5, and 10. Compound 9 (50 mg/kg) or vehicle was orally dosed BID starting on day 1.
as §1
EG7 cells were implanted subcutaneously into C57BL/6 mice for each experiment. Anti-PD-L1 antibody (5 mg/kg) was dosed i.p. on Study Days 3, 5, 7, 9, 11, 13. Compound 9 (100 mg/kg) or vehicle was orally administered BID starting one day post implant. […] FIGS. 7B-7E show the individual replications of this measurement for each dosing. FIG. 7B is vehicle, FIG. 7C is anti-PD-L1 antibody, FIG. 7D is Compound 9, and FIG. 7E is Compound 9+ Anti-PD-L1.
Oxaliplatin was dosed i.p. 6 mg/kg on Study Days 7 and 14. Compound 9 (100 mg/kg) or vehicle was orally administered BID starting one day post implant. […] FIGS. 8B-8E show the individual replications of this measurement for each dosing. FIG. 8B is vehicle, FIG. 8C is oxaliplatin, FIG. 8D is Compound 9, and FIG. 8E is Compound 9+oxaliplatin.
Doxorubicin was dosed i.v. 2.5 mg/kg on Study Days 7 and 14. Compound 9 (50 mg/kg) or vehicle was orally administered BID starting one day post implant. […] FIGS. 9B-9E show the individual replications of this measurement for each dosing. FIG. 9B is vehicle, FIG. 9C is doxorubicin, FIG. 9D is Compound 9, and FIG. 9E is Compound 9+doxorubicin.
Docetaxel was dosed i.p. 5 mg/kg on Study Days 5, 12, and 19. Compound 9 (100 mg/kg) or vehicle was orally administered BID starting one day post implant. […] show the individual replications of this measurement for each dosing. FIG. 12B is vehicle, FIG. 12C is docetaxel, FIG. 12D is Compound 9, and FIG. 12E is Compound 9+docetaxel.

EG7 tumors = assay: Tumor-directed immune response: flow cytometry of excised EG7 tumors; type: in vivo, mouse; conditions: 50 mg/kg orally BID from day one, tumors excised day 14
Experimental: as §2

inhibition at 50 mg/kg (mouse plasma CD73): 92% | IC50 (recombinant human ENTPD2): > 10000 nM | IC50 (recombinant CD73): 0.17 nM
SMILES: C#C[C@@]1(O)[C@@H](COC(Cc2ccc(N3CCCNC3=O)cc2)(C(=O)O)C(=O)O)O[C@@H](n2cnc3c(N)nc(Cl)nc32)[C@@H]1O [Compound 9, 2-(((2R,3S,4R,5R)-5-(6-amino-2-chloro-9H-purin-9-yl)-3-ethynyl-3,4-dihydroxytetrahydrofuran-2-yl)methoxy)-2-(4-(2-oxotetrahydropyrimidin-1 (2H)-yl)benzyl)malonic acid]
% cell survival of A375 cells (A375 cells): comparable % cell survival | tumor volume, CT26 (CT26 cells): decrease in tumor volume compared to vehicle | tumor volume reduction, with or without CD8+ T cell depletion (EG7 cells; 50 mg/kg orally BID from day 1, anti-CD8 antibody i.p. days -1, 0, 5, 10): more of a tumor volume reduction | tumor volume, established EG7 tumors (EG7 cells; 100 mg/kg orally BID starting day six post implant): decrease in tumor volume | tumor volume, EG7, single agent and combination with doxorubicin (EG7 cells; Compound 9 50 mg/kg orally BID, doxorubicin i.v. 2.5 mg/kg days 7 and 14): reduction in tumor volume | tumor volume, EG7, single agent and combination with anti-PD-L1 antibody (EG7 cells; Compound 9 100 mg/kg orally BID, anti-PD-L1 5 mg/kg i.p. days 3, 5, 7, 9, 11, 13): reduction in tumor volume | tumor volume, EG7, single agent and combination with docetaxel (EG7 cells; Compound 9 100 mg/kg orally BID, docetaxel i.p. 5 mg/kg days 5, 12, 19): reduction in tumor volume | tumor volume, EG7, single agent and combination with oxaliplatin (EG7 cells; Compound 9 100 mg/kg orally BID, oxaliplatin i.p. 6 mg/kg days 7 and 14): reduction in tumor volume | tumor volume, EG7, dose response (EG7 cells; orally BID from day one post implant, increasing doses): further decrease in tumor volume with increasing doses | % CD8+ cells of CD45+ cells (EG7 tumors): increased
